From US6900219B2, “ABCA-1 elevating compounds” (CV Therapeutics, Inc., priority 2002, dated 2005)

test system: ABCA-1 gene; experiment: compounds tested and found to elevate cellular expression of the ABCA-1 gene (Examples 1-6; test not named); assay type: cell-based
Experimental: Activity testing is conducted as described in those patents and patent applications referenced above, and in the Examples below, and by methods apparent to one skilled in the art.

Compound	cellular expression of the ABCA-1 gene
O=C(Nc1ncc(-c2ccccc2)s1)c1ccc2ccccc2c1 [2-naphthyl-N-(5-phenyl(1,3-thiazol-2-yl))carboxamide]	elevate cellular expression of the ABCA-1 gene
CCn1c2ccccc2c2cc(CN(CCc3ccccc3)C(=O)c3ccc4c(c3)OCO4)ccc21 [2H-benzo[d]1,3-dioxolen-5-yl-N-[(9-ethylcarbazol-3-yl)methyl]-N-(2-phenylethyl)carboxamide]	elevate cellular expression of the ABCA-1 gene
O=C1CSC(NC(=O)c2ccc(F)cc2)=N1 [(4-fluorophenyl)-N-(4-oxo(1,3-thiazolin-2-yl))carboxamide]	elevate cellular expression of the ABCA-1 gene
Fc1cccc(CSc2ncc3ccccn23)c1 [3-[(3-fluorophenyl)methylthio]-4-hydroimidazolo[1,5-a]pyridine]	elevate cellular expression of the ABCA-1 gene
Cc1ccc2cc(NC(=O)c3ccccc3F)ccc2n1 [(2-fluorophenyl)-N-(2-methyl(6-quinolyl))carboxamide]	elevate cellular expression of the ABCA-1 gene
CC(=O)c1ccc(NC(=O)c2ccc(F)cc2)cc1 [N-(4-acetylphenyl)(4-fluorophenyl)carboxamide]	elevate cellular expression of the ABCA-1 gene
O=C(Nc1ncc(-c2ccccc2)s1)c1ccc(C(F)(F)F)c(F)c1 [[3-fluoro-4-(trifluoromethyl)phenyl]-N-(5-phenyl(1,3-thiazol-2-yl))carboxamide]	elevate cellular expression of the ABCA-1 gene
O=C(Nc1nc2ccccc2s1)C1CCC1 [N-benzothiazol-2-ylcyclobutylcarboxamide]	elevate cellular expression of the ABCA-1 gene
Cc1ccc2nc(-c3ccc(NC(=O)c4ccccc4C)cc3)sc2c1 [N-[4-(6-methylbenzothiazol-2-yl)phenyl](2-methylphenyl)carboxamide]	elevate cellular expression of the ABCA-1 gene
COC(=O)c1ccc(/N=C(\NC2CCCCC2)N2CCN(Cc3ccc4c(c3)OCO4)CC2)c(O)c1 [methyl 4-{(1E)-1-aza-2-[4-(2H-benzo[d]1,3-dioxolen-5-ylmethyl)piperazinyl]-2-(cyclohexylamino)vinyl}-3-hydroxybenzoate]	elevate cellular expression of the ABCA-1 gene
O=C(Nc1nc2ccccc2s1)c1ccco1 [N-benzothiazol-2-yl-2-furylcarboxamide]	elevate cellular expression of the ABCA-1 gene
O=C(NC1=NCCS1)c1ccc(Cl)cc1Cl [(2,4-dichlorophenyl)-N-(1,3-thiazolin-2-yl)carboxamide]	elevate cellular expression of the ABCA-1 gene
COc1ccc(C(=O)NCCc2ccccn2)cc1 [(4-methoxyphenyl)-N-(2-(2-pyridyl)ethyl)carboxamide]	elevate cellular expression of the ABCA-1 gene
CCOC(=O)CC(=O)CSc1nnc(NC(=O)c2ccc(Cl)cc2)s1 [ethyl 4-{5-[(4-chlorophenyl)carbonylamino](1,3,4-thiadiazol-2-ylthio)}-3-oxobutanoate]	elevate cellular expression of the ABCA-1 gene
CCc1ccc(N(Cc2c3ccccc3cc3ccccc23)C(=O)Nc2ccccc2F)cc1 [N-(9-anthrylmethyl)-N-(4-ethylphenyl)[(2-fluorophenyl)amino]carboxamide]	elevate cellular expression of the ABCA-1 gene
CCn1c2ccccc2c2cc(NC(=O)c3ccc(C)cc3)ccc21 [N-(9-ethylcarbazol-3-yl)(4-methylphenyl)carboxamide]	elevate cellular expression of the ABCA-1 gene
O=C(Nc1nc(-c2ccc(Cl)cc2)cs1)c1ccc(F)cc1F [(2,4-difluorophenyl)-N-[4-(4-chlorophenyl)(1,3-thiazol-2-yl)]carboxamide]	elevate cellular expression of the ABCA-1 gene
CCCN(C(=O)Nc1ccc(Br)cc1)C(C)c1nc2ccccc2c(=O)n1-c1ccc2ccccc2c1 (stereo not shown) [[(4-bromophenyl)amino]-N-[(3-(2-naphthyl)-4-oxo(3-hydroquinazolin-2-yl))ethyl]-N-propylcarboxamide]	elevate cellular expression of the ABCA-1 gene
COc1ccccc1NC(=O)N(CCc1ccccc1)C(C)c1nc2ccccc2c(=O)n1-c1ccc(Br)cc1 (stereo not shown) [1-{1-[3-(4-bromophenyl)-4-oxo-3,4-dihydro-quinazolin-2-yl]-ethyl}-3-(2-methoxy-phenyl-1-phenethylurea]	elevate cellular expression of the ABCA-1 gene
CCOc1ccc2nc(NC(=O)CC)sc2c1 [N-(6-ethoxybenzothiazol-2-yl)propanamide]	elevate cellular expression of the ABCA-1 gene

Compound	cellular expression of the ABCA-1 gene
O=C(Nc1nc2c(Cl)cccc2s1)c1ccc2c(c1)OC(F)(F)O2 [(2,2-difluorobenzo[3,4-d]1,3-dioxolen-5-yl)-N-(4-chlorobenzothiazol-2-yl)carboxamide]	elevate cellular expression of the ABCA-1 gene
CCCCC(=O)Nc1nc2ccccc2s1 [N-benzothiazol-2-ylpentanamide]	elevate cellular expression of the ABCA-1 gene
CCCCNC(=O)Nc1nc2ccccc2s1 [N-benzothiazol-2-yl(butylamino)carboxamide]	elevate cellular expression of the ABCA-1 gene
CC(C)CN(C(=O)Nc1ccc(Cl)cc1)C(C)c1nc2ccccc2c(=O)n1-c1ccc2ccccc2c1 (stereo not shown) [[(4-chlorophenyl)amino]-N-(2-methylpropyl)-N-[(3-(2-naphthyl)-4-oxo(3-hydroquinazolin-2-yl))ethyl]carboxamide]	elevate cellular expression of the ABCA-1 gene
CCCCNC(=O)N(CCC(C)C)C(C)c1nc2cc(Cl)ccc2c(=O)n1-c1ccc(C)cc1 (stereo not shown) [(butylamino)-N-{[7-chloro-3-(4-methylphenyl)-4-oxo(3-hydroquinazolin-2-yl)]ethyl}-N-(3-methylbutyl)carboxamide]	elevate cellular expression of the ABCA-1 gene
O=C(Nc1ccc2c(c1)CCC2)c1cccs1 [N-indan-5-yl-2-thienylcarboxamide]	elevate cellular expression of the ABCA-1 gene
N#Cc1cccc(C(=O)Nc2nc3ccccc3s2)c1 [N-benzothiazol-2-yl(3-cyanophenyl)carboxamide]	elevate cellular expression of the ABCA-1 gene
O=C(CCC1CCCC1)Nc1ccc2c(c1)OCCO2 [N-(2H,3H-benzo[e]1,4-dioxin-6-yl)-3-cyclopentylpropanamide]	elevate cellular expression of the ABCA-1 gene
COc1cc(C(=O)NC2=NC(C(=O)O)CS2)cc(OC)c1OC (stereo not shown) [2-[(3,4,5-trimethoxyphenyl)carbonylamino]-1,3-thiazoline-4-carboxylic acid]	elevate cellular expression of the ABCA-1 gene
CSc1ccc(NC(=O)N(CC(C)C)C(C)c2nc3ccccc3c(=O)n2-c2ccc3ccccc3c2)cc1 (stereo not shown) [N-(2-methylpropyl)[(4-methylthiophenyl)amino]-N-[(3-(2-naphthyl)-4-oxo(3-hydroquinazolin-2-yl))ethyl]carboxamide]	elevate cellular expression of the ABCA-1 gene
O=C(Nc1cccc(Cl)c1)Nc1ccc2c(c1)OCCO2 [(2H,3H-benzo[e]1,4-dioxin-6-ylamino)-N-(3-chlorophenyl)lcarboxamide]	elevate cellular expression of the ABCA-1 gene
COc1cc(C(=O)NC2=NCCS2)cc(OC)c1OC [(3,4,5-trimethoxyphenyl)-N-(1,3-thiazolin-2-yl)carboxamide]	elevate cellular expression of the ABCA-1 gene
O=C(Nc1nc(-c2ccc3ccccc3c2)cs1)c1ccc(OC(F)(F)F)cc1 [N-(4-(2-naphthyl)(1,3-thiazol-2-yl))[4-(trifluoromethoxy)phenyl]carboxamide]	elevate cellular expression of the ABCA-1 gene
O=C(Nc1nc(-c2ccccc2)ns1)C1CC1 [cyclopropyl-N-(3-phenyl(1,2,4-thiadiazol-5-yl))carboxamide]	elevate cellular expression of the ABCA-1 gene
O=C(Nc1nc2ccccc2s1)c1cnn(Cc2ccccc2)c1 [N-benzothiazol-2-yl[1-benzylpyrazol-4-yl]carboxamide]	elevate cellular expression of the ABCA-1 gene
O=C(Nc1cccc(Cl)c1)Nc1ccccc1C(=O)O [2-{[N-(3-chlorophenyl)carbamoyl]amino}benzoic acid]	elevate cellular expression of the ABCA-1 gene
CCOC(=O)C1=C(NCCc2ccccc2)CCN(C(=O)c2ccc(C)cc2)C1 [ethyl 1-[(4-methylphenyl)carbonyl]-4-[(2-phenylethyl)amino]-1,2,5,6-tetrahydropyridine-3-carboxylate]	elevate cellular expression of the ABCA-1 gene
O=C(COCc1ccccc1)Nc1ccc2c(c1)OCCO2 [N-(2H,3H-benzo[e]1,4-dioxin-6-yl)-2-(phenylmethoxy)acetamide]	elevate cellular expression of the ABCA-1 gene
6-(2-aminophenyl)-3-(methylethylthio)-2H-1,2,4-triazin-5-one	elevate cellular expression of the ABCA-1 gene
O=C(Nc1ncc(-c2ccc(F)cc2)s1)c1cccs1 [N-[5-(4-fluorophenyl)(1,3-thiazol-2-yl)]-2-thienylcarboxamide]	elevate cellular expression of the ABCA-1 gene
